“Also recorded” adds a separate entry of the source.
Key:
CYP3A4 [1] = experiment: Western blot of CYP3A4 protein level after compound treatment; conditions: 1 μM compound, 24 h treatment
CYP3A5 [2] = target: T1, CYP3A5 (Homo sapiens, UniProt P20815); experiment: CW X-band EPR spectroscopy of CYP3A5-ligand complexes; conditions: CYP 200 μM, compound 400 μM, 10 K
[3] = test system: CYP1A2, 2B6, 2C8, 2C9, 2C19, and 2D6; experiment: Cytochrome P450 inhibition panel in pooled human liver microsomes; format: biochemical; conditions: 1.8 μM clobetasol, own probe substrate per CYP
CYP3A5 [4] = target: T1, CYP3A5; experiment: CYP3A5 activity in AsPC-1 cells by 1-hydroxymidazolam formation; format: cell-based; conditions: 5 μM midazolam, 24 h
CYP3A4 [5] = target: T2, CYP3A4 (Homo sapiens, UniProt P08684); experiment: Cytochrome P450 inhibition panel in pooled human liver microsomes; format: biochemical; conditions: 1.8 μM clobetasol
CYP3A4 [6] = target: T2, CYP3A4; experiment: CW X-band EPR spectroscopy of CYP3A4-ligand complexes; conditions: CYP 200 μM, compound 400 μM, 10 K
CYP3A4 [7] = target: T2, CYP3A4; experiment: P450-Glo luminescence biochemical inhibition assay; conditions: compound at 1.8 μM, DMSO 0.1%
CYP3A5 [8] = target: T1, CYP3A5; experiment: UV-visible absorbance titration with purified recombinant CYP3A5; conditions: UV-visible Soret band shift

| Compound | Effect on CYP3A4 protein level (Western blot) (CYP3A4 [1]) | Heme iron spin state of CYP3A5 complex (EPR) (CYP3A5 [2]) | Inhibition of other major human CYPs [3] | Inhibition of CYP3A5 activity (1OH-MDZ formation) (CYP3A5 [4]; CYP3A5 overexpressed (+Dox) in WT or 3A5-/- AsPC-1 cells) | Inhibition of CYP3A5 activity (1OH-MDZ formation) compared with ketoconazole (CYP3A5 [4]; parental AsPC-1 (WT) cells, dose-response) | Inhibition of CYP3A4-mediated catalysis, substrate midazolam (CYP3A4 [5]) | Inhibition of CYP3A4-mediated catalysis, substrate testosterone (CYP3A4 [5]) | Heme iron spin state of CYP3A4 complex (EPR) (CYP3A4 [6]) | Inhibition of CYP3A4 (CYP3A4 [7]) | Spectral shift type on titration with CYP3A5 (CYP3A5 [8]) |
| --- | --- | --- | --- | --- | --- | --- | --- | --- | --- | --- |
| CCC(=O)O[C@]1(C(=O)CCl)[C@@H](C)C[C@H]2[C@@H]3CCC4=CC(=O)C=C[C@]4(C)[C@@]3(F)[C@@H](O)C[C@@]21C [clobetasol, Clobetasol propionate] | did not increase the protein level of CYP3A4 | five-coordinate HS ferric heme iron state | little or no inhibition; also recorded: no significant inhibition | inhibited the CYP3A5 activity | slightly more potent | uninhibited | uninhibited | no new HS formation | no inhibition | – |
| CC(=O)N1CCN(c2ccc(OCC3COC(Cn4ccnc4)(c4ccc(Cl)cc4Cl)O3)cc2)CC1 (stereo not shown) [ketoconazole, Ketoconazole] | increased CYP3A4 protein expression | – | – | – | – | – | – | – | – | – |
| Cc1ncc2n1-c1ccc(Cl)cc1C(c1ccccc1F)=NC2 [midazolam, Midazolam] | – | five-coordinate HS ferric heme iron state | – | – | – | – | – | an HS signal was induced | – | typical type I CYP spectral shift |
